# According to patent publication US9334259B2, “Aryloxyacetamide compound and pesticide” (Nippon Soda Co., Ltd., priority 2012, dated 2016):
# Tested on: acaricide-resistant adult female Aculops pelekassi
# Experiment: Efficacy test against Aculops pelekassi (mandarin orange leaf)
# Format: in vivo
# Conditions: 125 ppm emulsion sprayed
# Method: Twenty acaricide-resistant adult female Aculops pelekassi acarus were inoculated onto a mandarin orange leaf placed in a Petri dish. Next, an emulsion was prepared having the formula indicated in the aforementioned Preparation example 2. This emulsion was diluted with water to a compound concentration of 125 ppm after which the diluted liquids were sprayed onto the mandarin orange leaf with a rotary spraying tower. The mandarin orange leaf was then placed in a temperature-controlled room at a temperature of 25° C. and a humidity of 65%. The life and death of the adult insects were investigated 3 days after the spraying. The development from eggs laid to adult was investigated 10 days after the spraying.
structure (smiles),measurement,setting,value
CCC(Oc1cc(Br)c(Cl)c(Br)c1)C(=O)NC(C)(C)c1ncccn1 (centres unmarked) [Compound No. 1-14],insect mortality rate after 3 days,3 days after spraying,≥ 90%
same,insect mortality rate after 10 days,10 days after spraying,≥ 90%
